pIC50: −log10 of the molar value.
Tested on: 186277-243-T-J2-PDC complex spheroid viability
Assay: Anticancer human tumor 186277-243-T-J2-PDC patient-derived colon adenocarcinoma cell line growth inhibition [GQUAD]
Details: for pIC50: curve of first compound; for viability, T/C: stronger effect = lower value
Method in brief: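 Tumor cells were grown as complex spheroids with HUVEC endothelial cells and mesenchymal stem cells as stroma. G-quadruplex stabilizers were combined with targeted agents over half-log dilutions from near the clinical Cmax, or from 10 microM.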

[1] = second compound 0.0316 µM, first compound 0.0316 µM
[2] = second compound 0.0316 µM, first compound 0.1 µM
[3] = second compound 0.0316 µM, first compound 0.316 µM
[4] = second compound 0.0316 µM, first compound 1 µM
[5] = second compound 0.0316 µM, first compound 3.16 µM
[6] = second compound 0.0316 µM, first compound 10 µM
[7] = second compound 0.1 µM, first compound 0.0316 µM
[8] = second compound 0.1 µM, first compound 0.1 µM
[9] = second compound 0.1 µM, first compound 0.316 µM
[10] = second compound 0.1 µM, first compound 1 µM
[11] = second compound 0.1 µM, first compound 3.16 µM
[12] = second compound 0.1 µM, first compound 10 µM
[13] = second compound 0.316 µM, first compound 0.0316 µM
[14] = second compound 0.316 µM, first compound 0.1 µM
[15] = second compound 0.316 µM, first compound 0.316 µM
[16] = second compound 0.316 µM, first compound 1 µM
[17] = second compound 0.316 µM, first compound 3.16 µM
[18] = second compound 0.316 µM, first compound 10 µM
[19] = second compound 1 µM, first compound 0.0316 µM
[20] = second compound 1 µM, first compound 0.1 µM
[21] = second compound 1 µM, first compound 0.316 µM
[22] = second compound 1 µM, first compound 1 µM
[23] = second compound 1 µM, first compound 3.16 µM
[24] = second compound 1 µM, first compound 10 µM
[25] = second compound 3.16 µM, first compound 0.0316 µM
[26] = second compound 3.16 µM, first compound 0.1 µM
[27] = second compound 3.16 µM, first compound 0.316 µM
[28] = second compound 3.16 µM, first compound 1 µM
[29] = second compound 3.16 µM, first compound 3.16 µM
[30] = second compound 3.16 µM, first compound 10 µM
[31] = second compound 10 µM, first compound 0.0316 µM
[32] = second compound 10 µM, first compound 0.1 µM
[33] = second compound 10 µM, first compound 0.316 µM
[34] = second compound 10 µM, first compound 1 µM
[35] = second compound 10 µM, first compound 3.16 µM
[36] = second compound 10 µM, first compound 10 µM
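Also: spheroids exposed to drugs for 7 days.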
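For viability, T/C in this document: 100% = DMSO vehicle control viability.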

`CC1COCCN1c1cc(-c2ccnn2C)c2ccnc(-c3ccn[nH]3)c2n1` (stereo unspecified) + CN(C)c1ccc(Nc2c3ccc(NC(=O)CCN4CCCC4)cc3nc3cc(NC(=O)CCN4CCCC4)ccc23)cc1 gave a pIC50 (second compound 0.0316 µM) of 7.29, a pIC50 (second compound 0.1 µM) of 7.33 and a pIC50 (second compound 0.316 µM) of 7.29. For the same molecule, the pIC50 (second compound 1 µM) was greater than 7.50, the pIC50 (second compound 3.16 µM) was 7.39 and the pIC50 (second compound 10 µM) was 7.49. The viability, T/C [1] was 77.7%, the viability, T/C [2] was 12.4% and the viability, T/C [3] was 6.8%. The viability, T/C [4] was 5.06%, the viability, T/C [5] was 4.62% and the viability, T/C [6] was 5.21%. The viability, T/C [7] was 68.3%, the viability, T/C [8] was 13.6% and the viability, T/C [9] was 6.89%. It also gave a viability, T/C [10] of 4.08%, a viability, T/C [11] of 5.19% and a viability, T/C [12] of 5.02%. The viability, T/C [13] was 76.5%, the viability, T/C [14] was 12.4% and the viability, T/C [15] was 5.74%. For the same molecule, the viability, T/C [16] was 4.54%, the viability, T/C [17] was 5.22% and the viability, T/C [18] was 5.43%. For the same molecule, the viability, T/C [19] was 49.3%, the viability, T/C [20] was 12.6% and the viability, T/C [21] was 6.08%. The viability, T/C [22] was 4.26%, the viability, T/C [23] was 5.15% and the viability, T/C [24] was 4.9%. It also gave a viability, T/C [25] of 60.6%, a viability, T/C [26] of 13.1% and a viability, T/C [27] of 6.06%. For the same molecule, the viability, T/C [28] was 4.8%, the viability, T/C [29] was 4.59% and the viability, T/C [30] was 4.41%. It also gave a viability, T/C [31] of 51%, a viability, T/C [32] of 12.1% and a viability, T/C [33] of 5.91%. The viability, T/C [34] was 4.1%, the viability, T/C [35] was 4.19% and the viability, T/C [36] was 4.01%.

Molecule `CCc1c2c(nc3ccc(O)cc13)-c1cc3c(c(=O)n1C2)COC(=O)[C@]3(O)CC` + CN(C)c1ccc(Nc2c3ccc(NC(=O)CCN4CCCC4)cc3nc3cc(NC(=O)CCN4CCCC4)ccc23)cc1 has a pIC50 (second compound 0.0316 µM) of 8.23, a pIC50 (second compound 0.1 µM) of 8.20 and a pIC50 (second compound 0.316 µM) of 8.20. For the same molecule, the pIC50 (second compound 1 µM) was 8.24, the pIC50 (second compound 3.16 µM) was 8.11 and the pIC50 (second compound 10 µM) was 8.12. The viability, T/C (second compound 0.0316 µM, first compound 0.000999 µM) was 97.1%, the viability, T/C (second compound 0.0316 µM, first compound 0.00316 µM) was 62.1% and the viability, T/C (second compound 0.0316 µM, first compound 0.00999 µM) was 40.6%. For the same molecule, the viability, T/C [1] was 23.8%, the viability, T/C (second compound 0.0316 µM, first compound 0.0999 µM) was 17.1% and the viability, T/C [3] was 13.1%. It also gave a viability, T/C (second compound 0.1 µM, first compound 0.000999 µM) of 99.8%, a viability, T/C (second compound 0.1 µM, first compound 0.00316 µM) of 60.1% and a viability, T/C (second compound 0.1 µM, first compound 0.00999 µM) of 44.3%. The viability, T/C [7] was 25.8%, the viability, T/C (second compound 0.1 µM, first compound 0.0999 µM) was 15.8% and the viability, T/C [9] was 11.6%. The viability, T/C (second compound 0.316 µM, first compound 0.000999 µM) was 107%, the viability, T/C (second compound 0.316 µM, first compound 0.00316 µM) was 69% and the viability, T/C (second compound 0.316 µM, first compound 0.00999 µM) was 36%. For the same molecule, the viability, T/C [13] was 23.7%, the viability, T/C (second compound 0.316 µM, first compound 0.0999 µM) was 15.7% and the viability, T/C [15] was 11.1%. It also gave a viability, T/C (second compound 1 µM, first compound 0.000999 µM) of 82.9%, a viability, T/C (second compound 1 µM, first compound 0.00316 µM) of 59.7% and a viability, T/C (second compound 1 µM, first compound 0.00999 µM) of 41.6%. The viability, T/C [19] was 25.4%, the viability, T/C (second compound 1 µM, first compound 0.0999 µM) was 15.8% and the viability, T/C [21] was 10.4%. The viability, T/C (second compound 3.16 µM, first compound 0.000999 µM) was 92.8%, the viability, T/C (second compound 3.16 µM, first compound 0.00316 µM) was 63.4% and the viability, T/C (second compound 3.16 µM, first compound 0.00999 µM) was 49.4%. It also gave a viability, T/C [25] of 27.1%, a viability, T/C (second compound 3.16 µM, first compound 0.0999 µM) of 16.3% and a viability, T/C [27] of 8.68%. It also gave a viability, T/C (second compound 10 µM, first compound 0.000999 µM) of 83%, a viability, T/C (second compound 10 µM, first compound 0.00316 µM) of 63.1% and a viability, T/C (second compound 10 µM, first compound 0.00999 µM) of 45.5%. It also gave a viability, T/C [31] of 31.4%, a viability, T/C (second compound 10 µM, first compound 0.0999 µM) of 16.4% and a viability, T/C [33] of 9.38%.

For `COc1cccc2c1C(=O)c1c(O)c3c(c(O)c1C2=O)CC(O)(C(=O)CO)CC3OC1CC(N)C(O)C(C)O1` (stereo unspecified) + Cc1cnc(CNC(=O)c2c(=O)c3ccc(N4CCCN(C)CC4)nc3n3c2sc2ccccc23)cn1, the pIC50 (second compound 0.0316 µM) was 6.36, the pIC50 (second compound 0.1 µM) was 6.20 and the pIC50 (second compound 0.316 µM) was 6.46. For the same molecule, the pIC50 (second compound 1 µM) was greater than 7.50, the pIC50 (second compound 3.16 µM) was greater than 7.50 and the pIC50 (second compound 10 µM) was greater than 7.50. The viability, T/C [1] was 113%, the viability, T/C [2] was 84.8% and the viability, T/C [3] was 65.2%. For the same molecule, the viability, T/C [4] was 24.3%, the viability, T/C [5] was 1.89% and the viability, T/C [6] was 0.15%. It also gave a viability, T/C [7] of 86.5%, a viability, T/C [8] of 78.3% and a viability, T/C [9] of 77%. It also gave a viability, T/C [10] of 32.6%, a viability, T/C [11] of 1.48% and a viability, T/C [12] of 0.63%. It also gave a viability, T/C [13] of 59.4%, a viability, T/C [14] of 56.3% and a viability, T/C [15] of 52.3%. It also gave a viability, T/C [16] of 23.8%, a viability, T/C [17] of 0.99% and a viability, T/C [18] of 0.15%. It also gave a viability, T/C [19] of 45.9%, a viability, T/C [20] of 37.5% and a viability, T/C [21] of 46.5%. It also gave a viability, T/C [22] of 19.9%, a viability, T/C [23] of 0.12% and a viability, T/C [24] of 1.33%. The viability, T/C [25] was 43.5%, the viability, T/C [26] was 54.4% and the viability, T/C [27] was 31.4%. It also gave a viability, T/C [28] of 13.3%, a viability, T/C [29] of 2.48% and a viability, T/C [30] of 0.22%. For the same molecule, the viability, T/C [31] was 39.9%, the viability, T/C [32] was 41.3% and the viability, T/C [33] was 41.8%. For the same molecule, the viability, T/C [34] was 15.9%, the viability, T/C [35] was 0.24% and the viability, T/C [36] was 0.26%.

Reference: PubChem BioAssay AID2060512 (Molecular Pharmacology Branch, DTP, NCI, 2025)
